This note sets out measurements from patent US8815577B2, “Assay electrode having immobilized lipid/protein layers, methods of making the same and methods of using the same for luminescence test measurements” (Meso Scale Technologies, LLC, priority 2001, dated 2014).

Test [1] has as its system EGFR in A431 cells. The test is described as follows: Measuring of EGFR activation dependent phosphorylation (prophetic). The test is classed as cell-based. Conditions: membrane fragments of EGF-activated A431 cells. The text has this: Activation of EGFR leads to its autophosphorylation. The cells are lysed as described in Example 1.2 to form cell membrane fragments (and, preferably, purified by centrifugation). The cell membrane fragments are immobilized on carbon electrodes integrated into the multi-well plates by passive adsorption or specific binding to a capture reagent previously immobilized on the electrode (e.g., wheat germ agglutinin, anti-EGFR, or another antibody specific for a membrane component, preferably, an epitope found on the cytoplasmic side) (as described in Example 1.3). The immobilized membrane fragments are treated with a buffered solution containing a STAG-labeled anti-phosphotyrosine antibody. In an alternate protocol, the membranes and antibody are premixed prior to addition of the membranes to the wells. A buffered tripropylamine solution is introduced to the well and ECL is induced and measured as described in Example 1.4.

Test [2] concerns EGFR in A431 cells. The test is described as follows: Measurement of EGFR activation dependent binding events (prophetic). The test is classed as cell-based. Conditions: membrane fragments of EGF-activated A431 cells. The text has this:
Activation of the EGFR leads to autophosphorylation of EGFR followed by the sequential binding of shc to EGFR and grb-2 to shc. The cells are lysed as described in Example 1.2 to form cell membrane fragments (and, preferably, purified by centrifugation). The cell membrane fragments are immobilized on carbon electrodes integrated into the multi-well plates by passive adsorption (as described in Example 1.3) or specific binding to a capture reagent immobilized on the electrode (e.g., wheat germ agglutinin, anti-EGFR, or another antibody specific for a membrane component, preferably, an epitope found on the cytoplasmic side). The immobilized membrane fragments are treated with a buffered solution containing an STAG-labeled antibody directed against shc or grb-1. In an alternate protocol, the membranes and antibody are premixed prior to addition of the membranes to the wells. A buffered tripropylamine solution is introduced into the well and ECL is induced and measured as described in Example 1.4.

Test [3] has as its system tyrosine phosphatase activity / phosphotyrosine content in U2-OS cells. The test is described as follows: Cellular phosphotyrosine content in fixed U2-OS cells grown on carbon electrode, ECL detection (tyrosine phosphatase inhibition). In kind it is cell-based. Particulars: 1 mM, 30 minute incubation. As for the experimental part: U2-OS cells were grown in non-plasma treated Multi-Array plates using the growth conditions recommended by the American Type Culture Collection (ATCC reference number HTB-96). The plates were partially sterilized beforehand by illumination with a high energy UV light (Strata Linker Model 2400, Stratagene) set to deliver 9999 joules to the plate surface over the course of 5 minutes. Approximately 10,000 trypsinized cells were dispensed to each well of the 96 well plate in 100 μl of tissue culture media (see ATCC reference above) and incubated overnight in a cell culture incubator (at 37° C. in a humidified atmosphere containing 5% CO2) to promote attachment of the cells to the electrode surface.
Per-Vanadate, a tyrosine phosphatase inhibitor was added to a some of the wells to give a final concentration of 1 mM in those wells. […]
Phosphotyrosine containing proteins were detected by incubating the wells for one hour in 90 μl of PBS/FBS containing an anti-phosphotyrosine monoclonal antibody (100 ng/mL) and an anti-mouse secondary antibody (200 ng/mL) that was labeled with ruthenium-tris-bipyridine (ORI-TAG NHS Ester, IGEN International). […] ECL Assay Buffer was added (150 μl of OriGlo Plus, IGEN International) and the plate was analyzed using a Sector HTS instrument.

The target in test [4] is melanocortin 5 receptor (MC5) (Homo sapiens, UniProt P33032). Conditions: at the higher concentrations.
Chain of melanocortin 5 receptor (MC5) (P33032 whole entry): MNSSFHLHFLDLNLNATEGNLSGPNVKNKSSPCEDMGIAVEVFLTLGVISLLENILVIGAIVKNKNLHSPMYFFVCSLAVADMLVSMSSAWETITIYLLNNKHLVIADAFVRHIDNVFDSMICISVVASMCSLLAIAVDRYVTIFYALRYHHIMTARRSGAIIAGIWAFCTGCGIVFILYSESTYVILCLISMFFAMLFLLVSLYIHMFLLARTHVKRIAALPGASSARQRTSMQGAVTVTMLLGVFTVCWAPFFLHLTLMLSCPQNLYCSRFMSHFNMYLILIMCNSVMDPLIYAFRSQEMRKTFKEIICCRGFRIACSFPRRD
Experimental: The membrane fragments came from HEK-293 cells that were transformed to express MC5.
Pure PHA-E was passively adsorbed onto the working electrode of plasma-treated Multi-Array 384-well plates by dispensing PHA-E (10 pmol per well) in PBS (5 μL per well) into the wells of the plate. Plates were sealed and incubated for 1 h at ambient temperature. Following the incubation, 3% BSA blocking solution was added (65 μL per well) and the plates were sealed and incubated for 1 h at room temperature. Plates were washed 4 times with PBS and dried. MC5 containing membrane fragments were immobilized in the plates using the procedure described in Example 2.3.1 except that in this case the immobilization occurred via lectin-sugar interactions.
In this Example, MC5 containing membrane fragments were immobilized on the electrode surface of plasma treated Multi-Array 96 well plates (Meso Scale Discovery) by capture on a passively adsorbed layer of pure Pokeweed Mitogen according to an immobilization protocol analogous to that described in the Example 2.3.2. […] The fluid in the wells was then removed and 150 μL of a buffered detergent-free solution of tripropylamine (MSD Assay Buffer T, surfactant free, Meso Scale Discovery) was added. ECL from the wells was measured using a Sector HTS plate reader.

Turning to “EGF: epidermal growth factor, ligand of EGFR (NSDSECPLSHDGYCLHDGVCMYIEALDKYACNCVVGYIGERCQYRDLKWWELR; not fully specified; Epidermal growth factor; UniProt P01133 971-1023, looked up)”, the “ECL signal (STAG-labeled anti-phosphotyrosine antibody) versus control A431 cells not exposed to EGF” value with EGFR in A431 cells [1] was “greater”. Moreover, the “ECL signal (STAG-labeled antibody against shc or grb-1) versus control A431 cells not exposed to EGF” value in the test on EGFR in A431 cells [2] was “greater”. Turning to Per-vanadate, the “ECL signal after subtraction of background, relative to untreated cells” value in test [3] is reported as “more than three times higher”. Further, in test [3] (n=4), the “Average ECL signal (anti-phosphotyrosine antibody)” value was determined as 7690.0. As to “[Nle4,D-Phe7]-α-melanocyte-stimulating hormone [NDP-α-MSH]”, in test [4], the “inhibition of the binding of NDP-α-MSH-TAG to MC5” value is “almost complete”.
